Test results from US11421145B2, “Oil recovery methods using a formulation containing an unsaturated zwitterionic surfactant and a polymer” (King Fahd University of Petroleum and Minerals, priority 2019, dated 2022).

Experiments:
[1] = Surface tension by pendant-drop technique (CMC and surface properties); format: physicochemical
Protocol: The surface tension of the unsaturated surfactant in SW and FW at different temperatures was analyzed using a Biolin Scientific Attension instrument. The pendant-drop technique was used to measure the surface tension at 30° C. and 60° C. Other surface properties such as CMC, surface tension at CMC (γcmc), surfactant ability at lower surface tension (πcmc), maximum surface access (Γmax), and minimum area per molecule (Amin) were also obtained from the surface tension data. These surface properties were calculated using Eqs. 1-3,
where γ0 is the surface tension of the brine (FW or SW), NA is the Avogadro number, dγ/dlnC is the slope below CMC in the surface tension plot, C is the surfactant concentration in brine, T is temperature, R is the gas constant, and n=1 for zwitterionic surfactants [Wang, Y., Zhang, Y., Liu, X., Wang, J., Wei, L., & Feng, Y. (2014) Effect of a hydrophilic head group on Krafft temperature, surface activities and rheological behaviors of Erucyl Amidobetaines. Journal of Surfactants and Detergents, 17:295-301—incorporated herein by reference]. The interfacial tension between crude oil and water was measured using a spinning drop tensiometer from Kruss (SITE 100). All the reported points are the average equilibrium values.
Variations in the surface tension of the unsaturated surfactant with concentration at different temperatures and salinities are summarized in FIG. 7. […] The CMC and surface tension corresponding to the CMC (γcmc) were estimated from the breakpoint in surface tension versus concentration plots. […] A similar reduction in CMC with increasing NaCl concentration was reported for the alkyl amidosulfobetaine surfactant [Feng, Y., & Chu, Z. (2016) Correlating surface activity with structural and environmental parameters for alkylamidosulfobetaine surfactants. Colloid and Polymer Science, 294:957-963, incorporated herein by reference in its entirety]. However, in this disclosure, the reduction in the CMC was observed when SW was replaced with FW. The reduction in the CMC could be associated with the salting-out effect of the unsaturated surfactant hydrophobic tail, which got enhanced by increasing the salinity [Feng, Y., & Chu, Z. (2016) Correlating surface activity with structural and environmental parameters for alkylamidosulfobetaine surfactants. Colloid and Polymer Science, 294:957-963, incorporated herein by reference in its entirety].

[2] = Solubility and compatibility in seawater (SW) and formation water (FW); format: physicochemical
Protocol: Synthetic seawater (SW) and formation water (FW) were prepared using NaCl, Na2SO4, NaHCO3, CaCl2, and MgCl2. All the salts were obtained from Sigma-Aldrich, USA.
Solubility and compatibility of the surfactant in the reservoir and injection brine are the primary considerations for further evaluation of the unsaturated surfactant for EOR application. If the surfactant is not soluble in the seawater and formation brine, it can be rejected at the initial stage. […] After the compatibility test with SW and FW, the short-term thermal stability of the synthesized unsaturated surfactant was evaluated using TGA analysis. […] Only 3% weight loss was observed up to 200° C., which was mainly associated with solvent and water evaporation. […] TGA results helped to identify and eliminate the surfactants that had lower decomposition temperatures. However, for real field applications, long-term thermal stability of the surfactant must be considered, as the surfactant residence time in the reservoir could vary from a few days to a few months.

Amin ([1]; FW, 60 °C): 0.28 nm^2
CMC ([1]; FW, 60 °C): 1.53 × × 10^−4 mol L^−1
Γmax × 10^6 ([1]; FW, 60 °C): 5.88 mol m^−2
γcmc ([1]; FW, 60 °C): 33.55 mN m^−1
πcmc ([1]; FW, 60 °C): 38.04 mN m^−1
Amin ([1]; SW, 30 °C): 0.22 nm^2
CMC ([1]; SW, 30 °C): 1.02 × × 10^−4 mol L^−1
Γmax × 10^6 ([1]; SW, 30 °C): 7.27 mol m^−2
γcmc ([1]; SW, 30 °C): 30.23 mN m^−1
πcmc ([1]; SW, 30 °C): 41.76 mN m^−1
Amin ([1]; SW, 60 °C): 0.29 nm^2
CMC ([1]; SW, 60 °C): 2.05 × × 10^−4 mol L^−1
Γmax × 10^6 ([1]; SW, 60 °C): 5.60 mol m^−2
γcmc ([1]; SW, 60 °C): 31.03 mN m^−1
πcmc ([1]; SW, 60 °C): 40.96 mN m^−1
CMC expressed as surfactant concentration ([1]; corresponding to 1.02×10^−4 mol L^−1): 0.005%
CMC ([1]; in FW (summary b150)): 0.000205 mol/L
CMC ([1]; in SW (summary b150)): 0.000102 mol/L
CMC ([1]; in SW and FW (as worded)): 0.000102 mol/L
precipitation or phase separation on dissolution ([2]; SW (57,643 ppm) and FW (213,734 ppm)): no precipitation or phase separation
solubility in SW and FW ([2]; seawater and formation water): excellent solubility
SMILES: CCCCCCCC/C=C\CCCCCCCC(=O)NCCC[N+](C)(C)CCCS(=O)(=O)[O-] [unsaturated surfactant, 3-(N-oleamidopropyl-N,N-dimethylammonium) propane sulfonate]
